Reference: PubChem BioAssay AID1508612

assay: passive permeability, PAMPA, ADME assay (AID 1508612); details: pH 7.4, 30.0 min, 50.0 µM

Row | Structure (SMILES) | Papp [×10⁻⁶ cm/s]
1 | NC(=O)C1CCN(c2nc(-c3ccc(F)cc3)cs2)CC1 | 198
2 | NC(=O)c1ccc(-c2ncc3cnc(-c4cccc(F)c4)cn23)cc1 | 480
3 | COc1ccccc1NC(=O)C1=C(C)Nc2c(C(=O)Nc3ccc(F)cc3)cnn2C1c1ccc(Cl)cc1 (stereo not drawn) | 302
4 | COc1ccc(CNC(=O)c2sc3nc(C)cc(C)c3c2N)cc1 | > 1000
5 | OCc1ccc(-c2nn(Cc3ccccc3)c3ccccc23)o1 | 842
6 | O=C(Nc1ccc2c(N3CCCCC3)ncnc2c1)c1cc(F)cc(F)c1 | > 1000
7 | Cc1nc2ccc(Nc3nc(-c4ccncc4)nc4ccccc34)cc2s1 | 55.8
8 | CN1CCN(c2ccc(Nc3nn4c(=O)c5ccccc5nc4s3)cc2)CC1 | 653
9 | COc1ncccc1-c1cc2c(ccn2CC2CCN([S+](C)(=O)[O-])CC2)c(N2CCOCC2)n1 | > 1000
10 | CC(C)(C)c1ccc(S(=O)(=O)c2cnc(SCC(=O)Nc3ccc(F)c(Cl)c3)[nH]c2=O)cc1 | 6.49
11 | COc1cc2ncnc(Oc3cccc(NC(=O)Nc4cc(C(C)(C)C(F)(F)F)on4)c3)c2cc1OC | 36.1
12 | COc1ccc(NC(=O)c2c(C)cccc2C)cc1[S+](=O)([O-])N1CCCCCC1 | 738
13 | CC(C)N(CCCNC(=O)Nc1ccc(C(C)(C)C)cc1)C[C@H]1O[C@@H](n2cc(Br)c3c(N)ncnc32)[C@H](O)[C@H]1O | 472
14 | Cc1ccc(CN2C(=O)C(O)(CC(=O)c3ccc(C)cc3)c3ccccc32)cc1 (stereo not drawn) | 802
15 | Cc1cc2ccccc2n1CC(=O)NC1CCCCC1 | 634
16 | Cc1cc(C)nc(NS(=O)(=O)c2ccc(NC(=S)NC(=O)COc3ccc(Br)cc3Cl)cc2)n1 | 457
17 | COc1ccc(C2c3c(ncn(CCN4CCOCC4)c3=N)Oc3ccc4ccccc4c32)cc1OC (stereo not drawn) | > 1000
18 | COc1cc([C@@H](CC(=O)O)c2ccc(C)c(CN3C[C@@H](C)Oc4ccccc4S3(=O)=O)c2)cc2nnn(C)c12 | 2.9
19 | O=[N+]([O-])c1cccc(CNc2ccc(S(=O)(=O)Nc3nccs3)cc2)c1O | 28.6
20 | O=C(Nc1ncnc2sc3c(c12)CCC3)c1ccco1 | 369
21 | c1ccc(Nc2cc(-c3ccoc3)ncn2)cc1 | > 1000
22 | CCOc1ccc(CCNC(=O)c2cc3ccccc3n2Cc2ccccn2)cc1OCC | > 1000
23 | Cc1ccc(-c2cc(C(=O)Nc3ccc(S(=O)(=O)Nc4ccc(C#N)cc4)cc3)c3ccccc3n2)cc1C | < 1
24 | S=c1[nH]c2ccccc2n1CCc1ccccc1 | 126
25 | Cc1cccc(-n2cnc3cc(C(=O)N4CCCC(C(F)(F)F)C4)ccc32)c1 (stereo not drawn) | > 1000

Row | Structure (SMILES) | Papp [×10⁻⁶ cm/s]
26 | Cc1ccc(S(=O)(=O)Nc2cc3c(cc2C(=O)Nc2nc(-c4ccccc4)cs2)OCO3)cc1 | 19.3
27 | Cc1cc(C)nc(NC(=S)N2CCN(c3nccc(C(F)(F)F)n3)CC2)c1 | > 1000
28 | N=c1c2c(ncn1-c1ccccc1)Oc1ccc3ccccc3c1C2c1ccc2c(c1)CCO2 (stereo not drawn) | 282
29 | CC[C@H]1CN(C)[C@H]2Cc3c([nH]c4ccccc34)C(=O)C[C@H]1[C@H]2C(=O)OC | 490
30 | Cc1cccc2nc(NC3=NC(c4[nH]ncc4Cl)C4=C(CCCC4=O)N3)oc12 (stereo not drawn) | 624
31 | CS(=O)(=O)Nc1cccc(-c2nccc(-n3ccnc3)n2)c1 | 355
32 | CC(C)(N)CNC(=O)CC1CCC2(CC1)OOC1(O2)C2CC3CC(C2)CC1C3 (stereo not drawn) | 488
33 | CN(C)C(=O)c1cc2cnc(Nc3ccc(N4CCNCC4)cn3)nc2n1C1CCCC1 | 138
34 | CCOc1ccc(CCNC(=O)c2cc3ccccc3n2CCN2CCOCC2)cc1OCC | > 1000
35 | CCCc1ccc(-c2csc(NC(=O)c3ccncc3NS(=O)(=O)c3ccc(C)cc3)n2)cc1 | 755
36 | C[C@]12N[C@H](Cc3ccccc31)c1ccccc12 | > 1000
37 | O=C(c1cnn(-c2cccc(F)c2)c1-n1cccc1)N1CCN(c2ccccc2F)CC1 | > 1000
38 | CC(=O)c1sc(NC(=O)c2ccco2)nc1-c1ccccc1 | 752
39 | Cc1ccnc(NC(=S)N2CCN(c3ccccc3C(F)(F)F)CC2)c1 | 726
40 | Cc1c(-c2cccc3c(CCCOc4cccc5ccccc45)c(C(=O)O)n(Cc4cccnc4)c23)c(COc2ccc(N3CCN([S+](=O)([O-])N(C)C)CC3)cc2)nn1C | 244
41 | CCNc1oc(-c2cccc3ccccc23)nc1C#N | 728
42 | COc1ccc(Cn2c(=O)[nH]c3cc(C(=O)NCCCN4CCCCC4)ccc3c2=O)cc1 | 16.8
43 | Cc1noc([C@@H]2CN(C(=O)c3nn(C)c4ccccc34)C[C@H]2CO)n1 | 84.2
44 | Cn1ccc2c(C(=O)NCc3cccnc3)nc(-c3ccc(CO)cc3)cc21 | 317
45 | Cc1cc(C)nc(N2CCCC(C(=O)NCCc3ccc(F)cc3)C2)n1 (stereo not drawn) | 62.2
46 | CCOC(=O)c1cnc2ccc(-c3cncc(NS(=O)(=O)c4ccccc4)c3)cn12 | 705
47 | CC(=O)c1ccc(N2CCN(S(=O)(=O)c3ccc4c(c3)CC(=O)N4)CC2)cc1 | 429
48 | Cc1ccc(S(=O)(=O)Nc2cnccc2C(=O)Nc2nc3ccccc3s2)cc1 | 475
49 | Cc1ccnc(NC(=S)N2CCN(c3ccc(C(F)(F)F)cc3[N+](=O)[O-])CC2)c1 | > 1000
50 | COc1ccc(OC)c(-c2nnc3ccc(-c4ccc(OC)c(O[C@@H]5CCOC5)c4)nn23)c1 | 877

Row | Structure (SMILES) | Papp [×10⁻⁶ cm/s]
51 | O=C(O)c1cccc(-n2cccc2/C=C2/NC(=O)N(c3cccc(Cl)c3)C2=O)c1 | 3.96
52 | CC(=O)N1CCc2c(sc3c2c(=O)n(-c2ccccc2Cl)c(=O)n3Cc2cccc(C)c2)C1 | 338
53 | Fc1cc(Nc2nc(-c3ccncc3)nc3ccccc23)ccc1-n1cncn1 | 171
54 | CNc1nc2c(s1)C(c1ccccc1F)CC(=O)N2 (stereo not drawn) | 52
55 | Cc1cccc2nc(-c3cccnc3)c(Nc3ccc(C(C)C)cc3)n12 | > 1000
56 | NC(=O)C1CCN(c2nnc(-c3ccc4c(c3)OCCCO4)s2)CC1 | 83.8
57 | CC(C)c1nc(CN(C)C(=O)N[C@H](C(=O)N[C@@H](Cc2ccccc2)C[C@H](O)[C@H](Cc2ccccc2)NC(=O)OCc2cncs2)C(C)C)cs1 | > 1000
58 | CC(C)C(=O)N1CCc2ccc(OCc3nc(C(=O)N4CCCC4)co3)cc2C1c1cccc(F)c1 (stereo not drawn) | 188
59 | O=C1CCCC2=C1C(c1[nH]ncc1Cl)N=C(Nc1nc3c(Br)cccc3o1)N2 (stereo not drawn) | 531
60 | Oc1ccc(CNc2ccccc2C(F)(F)F)c2cccnc12 | 17
61 | CC(C)(C)C(=O)N1CCN(c2nccc(Nc3ccccc3Cl)n2)CC1 | > 1000
62 | COc1ccccc1-c1cc2c(ccn2C)c(C(=O)NCC2CCN(C)C(=O)C2)n1 (stereo not drawn) | 317
63 | Cc1ccc(-c2c(CN3CCN(c4cccc(C(F)(F)F)c4)CC3)csc2C)cc1 | < 1
64 | CC(C)COc1ccc(-c2ccc(=O)n(CC(=O)NCCc3ccccc3)n2)cc1 | > 1000
65 | Cc1cn(-c2cc(NC(=O)c3ccc(C)c(Nc4nccc(-c5cccnc5)n4)c3)cc(C(F)(F)F)c2)cn1 | 676
66 | NS(=O)(=O)c1ccc(NC(=O)c2cc3ncccn3n2)cc1 | 82.5
67 | Cn1ccc2cc(-c3csc(N4CCC(C(N)=O)CC4)n3)ccc21 | 823
68 | Nc1cc(CN2C(=O)c3ccccc3C2=O)cc(Cl)c1O | 352
69 | CC(=O)c1c(C)[nH]c(C(=O)Nc2cccc(S(=O)(=O)N3CCOCC3)c2)c1C | 475
70 | Cc1cccc(-n2cnc3cc(C(=O)N4CCCC(C)(C)C4)ccc32)c1 | > 1000
71 | CCN(CC)CCCC(C)Nc1cc(/C=C/c2ccccc2Cl)nc2cc(Cl)ccc12 (stereo not drawn) | 833
72 | COc1c(C)c2c(c(O)c1C/C=C(\C)CCC(=O)OCCN1CCOCC1)C(=O)OC2 | 613
73 | Cc1cc(C)nc(NC(=S)N2CCN(c3cc(C(F)(F)F)nc4ccc(C(F)(F)F)cc34)CC2)c1 | 636
